Residues, ends and D or L forms follow the SMILES beside them.
Assay: Channel current (electrophysiological) analysis of peptide-induced pores
Format: physicochemical
Details: planar DOPC bilayer, 10 µM peptide, 100 mV; pH 7.0
Description: Electrophysiological measurements were performed using a MECA 16 TC chip with an Orbit 16 TC device (Nanion Technologies GmbH, Munich, Germany) according to the manufacturer’s instructions. The MECA 16 TC chamber was filled with 200 µL of buffer solution (150 mM KCl, 10 mM MOPS, pH 7.0); 1 µL of DOPC (lipid/n-decan, 10 mg/mL) solution was added to the chamber, and planar lipid bilayers were automatically prepared using the Orbit 16TC stirrer. The peptide was then dissolved in the chamber at 10 µM (a lipid/peptide molar ratio of ~ 6 in the chamber system), and 100 mV of voltage was applied. The channel current was monitored using the Orbit 16 TC Elements Data Reader 4 v.1.0.22. The channel current signals were detected using a 4-kHz low-pass filter at a sampling frequency of 20 kHz. Analysis of the channel signals was performed using pCLAMP ver. 10.7 (Molecular Devices, CA, USA). The data obtained in this measurement are n (number of current signals): 2081 > n > 311; N (number of experiments) > 3.

CC(=O)N[C@@H](CC(C)C)C(=O)N[C@@H](CCCNC(=N)N)C(=O)N[C@@H](CCCCN)C(=O)N[C@@H](CC(C)C)C(=O)N[C@@H](CCCNC(=N)N)C(=O)N[C@@H](CCCCN)C(=O)N[C@@H](CCCNC(=N)N)C(=O)N[C@@H](CC(C)C)C(=O)N[C@@H](CC(C)C)C(=O)N[C@@H](CCCNC(=N)N)C(=O)N[C@@H](CC(C)C)C(=O)N[C@@H](Cc1c[nH]c2ccccc12)C(=O)N[C@@H](CCCCN)C(=O)N[C@@H](CC(C)C)C(=O)N[C@@H](CCCNC(=N)N)C(=O)N[C@@H](CCCCN)C(=O)N[C@@H](CCCNC(=N)N)C(N)=O [A2-17] (Ac-LRKLRKRLLRLWKLRKR-NH2)
charge flux accompanied by spike current signal: much greater for A2-17 than that for StpA2-17 or StchA2-17

From paper PMC10632520, “Structural flexibility of apolipoprotein E-derived arginine-rich peptides improves their cell penetration capability” (Scientific Reports, 2023)
